Source: PMC10373739, “The AKT inhibitor, MK-2206, attenuates ABCG2-mediated drug resistance in lung and colon cancer cells” (Frontiers in Pharmacology, 2023)

Biological target: T1, ABCG2 transporter (Homo sapiens, UniProt Q9UNQ0)
T1 sequence (Q9UNQ0 1-655): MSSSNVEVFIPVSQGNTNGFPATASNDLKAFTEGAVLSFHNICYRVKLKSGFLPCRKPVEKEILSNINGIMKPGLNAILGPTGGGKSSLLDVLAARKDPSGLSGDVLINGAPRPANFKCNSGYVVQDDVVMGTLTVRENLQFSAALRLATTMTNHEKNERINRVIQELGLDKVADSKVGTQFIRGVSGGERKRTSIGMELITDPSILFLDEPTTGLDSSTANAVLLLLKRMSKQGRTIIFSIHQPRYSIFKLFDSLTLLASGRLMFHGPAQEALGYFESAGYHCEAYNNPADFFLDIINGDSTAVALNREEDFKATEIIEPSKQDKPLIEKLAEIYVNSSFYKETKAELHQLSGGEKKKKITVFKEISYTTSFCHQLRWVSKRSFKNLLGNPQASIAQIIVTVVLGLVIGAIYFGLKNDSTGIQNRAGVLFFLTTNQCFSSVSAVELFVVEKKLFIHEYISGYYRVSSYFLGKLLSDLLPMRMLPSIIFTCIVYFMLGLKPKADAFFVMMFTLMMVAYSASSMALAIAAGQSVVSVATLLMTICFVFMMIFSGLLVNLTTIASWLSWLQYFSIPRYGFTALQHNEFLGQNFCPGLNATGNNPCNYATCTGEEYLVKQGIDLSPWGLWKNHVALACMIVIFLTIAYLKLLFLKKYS
Test: vanadate-sensitive ATPase assay (stimulation of basal activity) in ABCG2 membrane vesicles from High Five insect cells
Type: biochemical

EC50: 0.46 µM
SMILES: NC1(c2ccc(-c3nc4ccn5c(=O)[nH]nc5c4cc3-c3ccccc3)cc2)CCC1 [MK-2206]
